Our source for the Ki values is ChEMBL document CHEMBL1128530, “Alpha- and beta-adrenoceptors: from the gene to the clinic. 1. Molecular biology and adrenoceptor subclassification” (J Med Chem, 1995).

The assay deals with T1, Alpha-2A adrenergic receptor (Homo sapiens, UniProt P08913).
T1 sequence (P08913 whole entry): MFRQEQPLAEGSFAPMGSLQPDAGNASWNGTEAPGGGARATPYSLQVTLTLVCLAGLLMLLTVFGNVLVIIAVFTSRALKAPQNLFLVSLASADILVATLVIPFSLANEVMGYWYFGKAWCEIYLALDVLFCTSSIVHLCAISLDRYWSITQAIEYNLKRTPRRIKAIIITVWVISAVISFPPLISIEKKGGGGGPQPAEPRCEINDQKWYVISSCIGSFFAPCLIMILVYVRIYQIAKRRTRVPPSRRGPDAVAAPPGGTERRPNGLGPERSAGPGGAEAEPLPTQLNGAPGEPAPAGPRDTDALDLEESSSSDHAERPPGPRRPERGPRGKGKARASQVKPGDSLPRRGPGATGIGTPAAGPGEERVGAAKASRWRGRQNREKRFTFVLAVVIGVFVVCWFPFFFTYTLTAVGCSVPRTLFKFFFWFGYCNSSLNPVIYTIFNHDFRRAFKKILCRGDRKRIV
Briefly: Binding affinity against Alpha-2A adrenergic receptor, from human clones.

`COc1cccc(OC)c1OCCNCC1COc2ccccc2O1` (stereo unspecified) gave a Ki of 3.5 nM. In other words, the single-digit nanomolar range.

The Ki is the equilibrium dissociation constant of an inhibitor or competing ligand from its target. A lower Ki goes with a stronger hold on the target.
